Reference: US4514410A, “Substituted 8-phenylisoxazolo[4,3-e][1,4]diazepin-5-ones” (Hoechst-Roussel Pharmaceuticals Inc., priority 1984, dated 1985)

Assays:
[1] = Average conflict response ratio (anxiolytic); type: in vivo; settings: drug:control
Description: The compounds of the invention are also useful as anxiolytic agents due to their ability to reduce anxiety in mammals. Anxiolytic activity is measured as the average conflict response ratio (drug:control) at 40 mg/kg of body weight.

[2] = test system: extensor tonus in electroshocked mice; experiment: Inhibition of extensor tonus induced by electroshock in mice (anticonvulsant); type: in vivo; settings: Mus musculus, effective dose for 50% inhibition of extensor tonus
From the text: The anti-convulsant activity of some of the compounds of this invention expressed in terms of the effective dose for 50% inhibition of extensor tonus in mg/kg of body weight in electroshocked mice is given in Table I.

Compound	Average Conflict Response Ratio ([1]; at 40 mg/kg of body weight)	ED50 [2]	Average Conflict Response Ratio ([1]; @ 20 mg/kg (standard))
CC1=C2C(=C(c3ccccc3Cl)N=CC(=O)N2C)NO1 [3,4-Dimethyl-8-(2-chlorophenyl)isoxazolo[4,3-e][1,4]diazepin-5-one]	18.2	35.6 mg/kg	–
CC1=C2C(=C(c3ccccc3F)N=CC(=O)N2C)NO1 [3,4-Dimethyl-8-(2-fluorophenyl)isoxazolo[4,3-e][1,4]diazepin-5-one]	11.2	79.8 mg/kg	–
CC1=C2C(=C(c3ccccc3)N=CC(=O)N2C)NO1 [3,4-Dimethyl-8-phenylisoxazolo[4,3-e][1,4]diazepin-5-one]	31.7	25.1 mg/kg	–
CC(=O)Nc1nnc(S(N)(=O)=O)s1 [acetazolamide, reference compound]	–	29.1 mg/kg	–
CNC1=Nc2ccc(Cl)cc2C(c2ccccc2)=[N+]([O-])C1 [chlordiazepoxide, reference compound]	–	–	32.6
